ChEMBL document CHEMBL1811753, “Discovery of potent and selective inhibitors of human platelet-type 12- lipoxygenase” (J Med Chem, 2011)
Blank lines part the entries; values can stand above or below the molecule they belong to. Calls of active or inactive are those of the source. No cut-off for these calls is given here.

Columns and labels:
[1] = target: T1, Polyunsaturated fatty acid lipoxygenase ALOX12 (Homo sapiens, UniProt P18054); assay: Inhibition of human platelet-type 12-lipoxygenase
T1 sequence (P18054 whole entry): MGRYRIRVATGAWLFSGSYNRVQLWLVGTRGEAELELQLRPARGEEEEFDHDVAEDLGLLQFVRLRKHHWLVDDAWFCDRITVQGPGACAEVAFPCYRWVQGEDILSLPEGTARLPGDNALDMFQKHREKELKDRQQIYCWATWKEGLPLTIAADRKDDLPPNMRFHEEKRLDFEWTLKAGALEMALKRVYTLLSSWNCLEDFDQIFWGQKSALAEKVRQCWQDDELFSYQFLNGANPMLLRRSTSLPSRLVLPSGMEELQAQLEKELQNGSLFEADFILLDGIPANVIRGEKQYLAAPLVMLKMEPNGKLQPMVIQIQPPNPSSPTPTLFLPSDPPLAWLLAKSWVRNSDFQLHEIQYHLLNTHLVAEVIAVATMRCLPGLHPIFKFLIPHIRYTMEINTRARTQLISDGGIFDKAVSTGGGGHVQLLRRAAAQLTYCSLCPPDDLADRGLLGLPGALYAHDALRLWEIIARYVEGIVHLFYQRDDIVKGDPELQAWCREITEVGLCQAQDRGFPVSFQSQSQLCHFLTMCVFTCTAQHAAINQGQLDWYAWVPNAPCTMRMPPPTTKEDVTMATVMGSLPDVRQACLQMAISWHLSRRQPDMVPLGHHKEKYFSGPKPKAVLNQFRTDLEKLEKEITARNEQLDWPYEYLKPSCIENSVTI

[2] = target: T2, Polyunsaturated fatty acid lipoxygenase ALOX15 (Homo sapiens, UniProt P16050)
T2 sequence (P16050 whole entry): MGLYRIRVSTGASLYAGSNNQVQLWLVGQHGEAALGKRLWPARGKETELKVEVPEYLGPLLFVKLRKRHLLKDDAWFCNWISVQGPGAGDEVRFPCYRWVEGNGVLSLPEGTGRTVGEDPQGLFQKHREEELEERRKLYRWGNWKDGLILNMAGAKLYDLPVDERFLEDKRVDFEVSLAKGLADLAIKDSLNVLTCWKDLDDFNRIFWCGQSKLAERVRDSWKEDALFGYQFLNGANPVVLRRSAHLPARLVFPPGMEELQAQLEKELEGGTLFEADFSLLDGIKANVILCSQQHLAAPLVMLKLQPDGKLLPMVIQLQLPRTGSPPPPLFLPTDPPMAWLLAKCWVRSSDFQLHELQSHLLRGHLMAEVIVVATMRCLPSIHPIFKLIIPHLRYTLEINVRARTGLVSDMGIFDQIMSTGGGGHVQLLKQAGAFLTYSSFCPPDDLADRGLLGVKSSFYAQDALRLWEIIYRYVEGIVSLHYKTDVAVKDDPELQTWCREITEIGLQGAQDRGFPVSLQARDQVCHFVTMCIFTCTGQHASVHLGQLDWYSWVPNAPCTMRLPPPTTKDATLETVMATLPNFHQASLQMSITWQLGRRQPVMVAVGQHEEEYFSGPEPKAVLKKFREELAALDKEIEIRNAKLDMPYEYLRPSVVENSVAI

[3] = target: T1, Polyunsaturated fatty acid lipoxygenase ALOX12; assay: Inhibition of human platelet-type N-terminally His6-tagged 12-lipoxygenase assessed as conjugated diene product formation using arachidonic acid by UV-vis spectrophotometer analysis
[4] = target: T2, Polyunsaturated fatty acid lipoxygenase ALOX15; assay: Inhibition of human reticulocyte N-terminally His6-tagged 15-lipoxygenase-1 assessed as conjugated diene product formation using arachidonic acid by UV-vis spectrophotometer analysis
[5] = system: Radical scavenging activity; assay: Antioxidant activity assessed as DPPH radical scavenging activity at 5 uM; type: functional
[6] = target: T3, Polyunsaturated fatty acid lipoxygenase ALOX12 (Homo sapiens) (UniProt P18054); conditions: 10 uM
T3 sequence (whole entry): T1 sequence (P18054 whole entry)

[7] = target: T1, Polyunsaturated fatty acid lipoxygenase ALOX12; assay: cell-based
[8] = target: T3, Polyunsaturated fatty acid lipoxygenase ALOX12 (Homo sapiens); conditions: 10 uM; remark: listed apart in the source
[9] = target: T3, Polyunsaturated fatty acid lipoxygenase ALOX12 (Homo sapiens); conditions: 100 uM
Homo sapiens [10] = species on record: Homo sapiens; assay: Selectivity ratio of IC50 for human 5-lipoxygenase to IC50 for human platelet-type N-terminally His6-tagged 12-lipoxygenase
Homo sapiens [11] = species on record: Homo sapiens; assay: Selectivity ratio of IC50 for human reticulocyte N-terminally His6-tagged 15-lipoxygenase-1 to IC50 for human platelet-type N-terminally His6-tagged 12-lipoxygenase
[12] = target: T4, Polyunsaturated fatty acid 5-lipoxygenase (Homo sapiens, UniProt P09917); assay: Inhibition of human 5-lipoxygenase assessed as conjugated diene product formation using arachidonic acid by UV-vis spectrophotometer analysis
T4 sequence (P09917 whole entry): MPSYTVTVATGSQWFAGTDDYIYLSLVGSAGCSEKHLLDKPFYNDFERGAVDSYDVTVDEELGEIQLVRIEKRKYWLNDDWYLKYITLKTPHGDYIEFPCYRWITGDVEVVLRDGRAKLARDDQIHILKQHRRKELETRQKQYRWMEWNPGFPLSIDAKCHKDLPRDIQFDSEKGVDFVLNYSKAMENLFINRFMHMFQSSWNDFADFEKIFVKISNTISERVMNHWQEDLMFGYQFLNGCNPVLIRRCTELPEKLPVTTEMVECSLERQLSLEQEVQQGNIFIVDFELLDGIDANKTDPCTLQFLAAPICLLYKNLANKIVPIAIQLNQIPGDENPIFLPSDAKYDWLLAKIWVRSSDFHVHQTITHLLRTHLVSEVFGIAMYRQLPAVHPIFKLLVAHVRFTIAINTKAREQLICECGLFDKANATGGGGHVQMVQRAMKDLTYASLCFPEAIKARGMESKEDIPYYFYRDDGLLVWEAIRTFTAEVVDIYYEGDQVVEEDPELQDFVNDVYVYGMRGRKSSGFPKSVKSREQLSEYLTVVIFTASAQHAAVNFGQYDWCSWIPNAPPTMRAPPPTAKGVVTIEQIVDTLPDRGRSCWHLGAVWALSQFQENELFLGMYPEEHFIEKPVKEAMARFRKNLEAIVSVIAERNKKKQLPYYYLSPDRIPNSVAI

[13] = target: T5, Polyunsaturated fatty acid lipoxygenase ALOX15B (Homo sapiens, UniProt O15296); assay: Inhibition of human reticulocyte N-terminally His6-tagged 15-lipoxygenase-2 assessed as conjugated diene product formation using arachidonic acid by UV-vis spectrophotometer analysis
T5 sequence (O15296 whole entry): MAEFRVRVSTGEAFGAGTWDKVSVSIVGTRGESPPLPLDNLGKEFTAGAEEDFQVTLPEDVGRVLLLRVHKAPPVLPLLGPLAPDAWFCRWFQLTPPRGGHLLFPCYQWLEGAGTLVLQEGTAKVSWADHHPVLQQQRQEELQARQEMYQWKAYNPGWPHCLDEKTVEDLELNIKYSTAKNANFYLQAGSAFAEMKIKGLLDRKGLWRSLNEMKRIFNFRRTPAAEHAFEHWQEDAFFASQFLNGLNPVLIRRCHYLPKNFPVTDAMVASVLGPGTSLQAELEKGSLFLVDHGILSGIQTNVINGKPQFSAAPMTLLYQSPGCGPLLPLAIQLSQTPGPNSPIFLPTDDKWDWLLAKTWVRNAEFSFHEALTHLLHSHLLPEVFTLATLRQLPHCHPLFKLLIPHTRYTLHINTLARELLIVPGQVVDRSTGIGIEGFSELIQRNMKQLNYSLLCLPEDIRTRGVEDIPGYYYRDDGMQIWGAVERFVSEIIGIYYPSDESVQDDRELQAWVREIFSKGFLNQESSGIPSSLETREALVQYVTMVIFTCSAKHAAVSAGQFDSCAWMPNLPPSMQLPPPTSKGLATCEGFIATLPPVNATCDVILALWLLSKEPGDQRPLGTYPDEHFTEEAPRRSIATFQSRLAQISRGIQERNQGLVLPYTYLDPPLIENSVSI

Homo sapiens [14] = species on record: Homo sapiens; assay: Selectivity ratio of IC50 for human reticulocyte N-terminally His6-tagged 15-lipoxygenase-2 to IC50 for human platelet-type N-terminally His6-tagged 12-lipoxygenase
[15] = target: T3, Polyunsaturated fatty acid lipoxygenase ALOX12 (Homo sapiens); assay: Uncompetitive inhibition of human platelet-type N-terminally His6-tagged 12-lipoxygenase assessed as 12-HPETE formation using arachidonic acid by Michaelis-Menten equation analysis
[16] = target: T3, Polyunsaturated fatty acid lipoxygenase ALOX12 (Homo sapiens); assay: Competitive inhibition of human platelet-type N-terminally His6-tagged 12-lipoxygenase assessed as 12-HPETE formation using arachidonic acid by Michaelis-Menten equation analysis

SMILES: CC(C)(c1ccc(O)c(Br)c1)c1cc(Br)c(O)c(Br)c1
- IC50 [1]: 5 µM
- IC50 [2]: 7 µM

- IC50 [3]: > 75 µM
SMILES: CC(=O)NC(c1ccco1)c1cc(Cl)c2ccc(Cl)nc2c1O (configuration not stated)

- IC50 [3]: > 75 µM
SMILES: CCC(=O)NC(c1ccc(Br)o1)c1cc(Cl)c2cccnc2c1O (configuration not stated)

- IC50 [3]: > 25 µM
SMILES: Cc1ccc(C(=O)NC(c2ccco2)c2cc(Cl)c3cccnc3c2O)cc1 (configuration not stated)

- IC50 [3]: > 75 µM
SMILES: CC(=O)NC(c1ccco1)c1cc(Cl)c2ccccc2c1O (configuration not stated)

- IC50 [4]: > 25 µM
- inhibition [6]: 70%
- IC50 [7]: 15 µM
- inhibition [8]: 68.9%
- inhibition [9]: Active
SMILES: CCC(=O)NC(c1cccs1)c1cc([N+](=O)[O-])c2cccnc2c1O (configuration not stated)
- Activity [5]: inactive

- IC50 [3]: > 50 µM
SMILES: CCC(=O)NC(c1ccc(F)cc1)c1cc(Cl)c2cccnc2c1O (configuration not stated)

- IC50 [3]: > 75 µM
SMILES: CC(=O)NC(C)c1cc(F)c2cccnc2c1O (configuration not stated)

- IC50 [3]: > 150 µM
SMILES: CC(=O)NC(C)c1cc(Cl)c2cccnc2c1O (configuration not stated)

- IC50 [4]: > 50 µM
- Ratio IC50 (Homo sapiens [10]): > 100
- Ratio IC50 (Homo sapiens [11]): > 50
- IC50 [12]: > 100 µM
- IC50 [13]: > 100 µM
- Ratio IC50 (Homo sapiens [14]): > 100
SMILES: CCC(=O)NC(c1ccco1)c1cc(Cl)c2cccnc2c1O (configuration not stated)

SMILES: Oc1c(Br)c(Br)c(Br)c(Br)c1Oc1ccc(Br)cc1Br
- IC50 [1]: 1.8 µM
- IC50 [2]: 0.7 µM

SMILES: Oc1c(Cl)cc(Cl)c2cccnc12 [CHLOROXINE]
- IC50 [4]: 2.4 µM
- IC50 [12]: 3.6 µM
- IC50 [13]: 28 µM
- IC50 [3]: 1.9 µM

- IC50 [3]: > 50 µM
SMILES: CCC(=O)NC(C)c1cc(Cl)c2cccnc2c1O (configuration not stated)

- IC50 [4]: > 25 µM
- Ratio IC50 (Homo sapiens [10]): > 100
- Ratio IC50 (Homo sapiens [11]): 25
- IC50 [12]: > 100 µM
- Kiuc [15]: 0.8 µM
- Kic [16]: 0.7 µM
SMILES: CC(=O)NC(c1cccs1)c1cc(Cl)c2cccnc2c1O (configuration not stated)

- IC50 [3]: > 75 µM
SMILES: CC(=O)NC(c1ccco1)c1cc(Cl)c2ccc(N3CCCCC3)nc2c1O (configuration not stated)

SMILES: CC(Cc1ccc(O)c(O)c1)C(C)Cc1ccc(O)c(O)c1 (configuration not stated)
- Activity [5]: Active

- IC50 [3]: > 75 µM
SMILES: CC(=O)NC(c1ccco1)c1cc(Cl)c2ccc(N(C)C)nc2c1O (configuration not stated)

- IC50 [4]: > 50 µM
- Ratio IC50 (Homo sapiens [10]): > 29
- Ratio IC50 (Homo sapiens [11]): > 15
- IC50 [12]: > 100 µM
- IC50 [13]: > 100 µM
- Ratio IC50 (Homo sapiens [14]): > 29
SMILES: CCC(=O)NC(c1cccs1)c1ccc2cccnc2c1O (configuration not stated)

- IC50 [3]: > 25 µM
SMILES: O=C(NC(c1ccco1)c1cc(Cl)c2cccnc2c1O)c1ccccc1 (configuration not stated)

- IC50 [3]: > 75 µM
SMILES: CCC(=O)NC(c1ccco1)c1cc(Cl)c2cccnc2c1OC (configuration not stated)

- IC50 [3]: > 150 µM
SMILES: CC(=O)NCc1cc(Cl)c2cccnc2c1O

- IC50 [3]: 3 µM
SMILES: CCC(=O)NC(c1ccco1)c1cc(Cl)c2c(c1O)NCCC2 (configuration not stated)
